Reference: patent publication US20110280865A1, “Ets-2 Biomarkers for Fibrotic Diseases and Uses Thereof” (THE OHIO STATE UNIVERSITY, priority 2009, published 2011)

Tested on: ets-2 (WT/WT) and ets-2 (A72/A72) mice
Experiment: Bronchoalveolar lavage (BAL) cell differentials after intra-peritoneal bleomycin
Type: in vivo, mouse
Conditions: mean ± S.E.M.
Procedure: Mice: Transgenic mice harboring a point mutation in Ets2 [Ets2tmA720sh, referred to as Ets2 (A72/A72)] resulting in a threonine to alanine conversion at position 72 were used. Wild type littermates (FVB/N background) were used as controls.
Bleomycin studies: Male mice, aged 6-12 weeks, underwent intra-peritoneal (IP) injection. Briefly, mice were injected with 0.035 U bleomycin/g or PBS (vehicle control) on days 1, 4, 8, 11, 15, 18, 22, and 25. One week following the last injection, mice were sacrificed. Prior to removal, lungs were lavaged with 1.0 ml of PBS. Lungs were subsequently removed and inflated at 20 cm pressure. The left lobe of the lung was placed in 10% Formalin and prepared for immunohistochemical processing (Histotechniques, Powell, Ohio), and the right lobes were snap frozen in liquid nitrogen for RNA, collagen, and protein analyses.
Bronchoalveolar lavage (BAL) analysis: Following the bleomycin regimen (33 days), two instillations of 0.5 ml of PBS were performed, and the BAL fluid (BALF) was collected. The total number of cells isolated via BAL was calculated. BAL fluid was then centrifuged to pellet the cells, and the supernatant (BALF) was collected and stored for ELISA analyses. Cells were resuspended in 100 μl of PBS, cytospun on slides, stained, and analyzed under a microscope for cell differentials.

[1] = ets-2 (A72/A72) mice, n = 7, 0.035 U bleomycin/g IP
[2] = ets-2 (WT/WT) mice, n = 5, 0.035 U bleomycin/g IP

## bleomycin
[1]
  Alveolar Macrophages: 6.8 ± 1.4 ×10^4
  Lymphocytes: 0.7 ± 0.6 ×10^4
  Neutrophils: 0.8 ± 0.6 ×10^4
  Total cells: 8.3 ± 2.0 ×10^4
[2]
  Alveolar Macrophages: 12.0 ± 2.3 $ ×10^4
  Lymphocytes: 0 ×10^4
  Neutrophils: 0 ×10^4
  Total cells: 12.0 ± 2.3 # ×10^4
